Reference: patent US11427549B2, “Pyrimidinyloxy benzo-fused compounds as herbicides” (FMC Corporation, priority 2017, dated 2022)

Columns and labels:
[1] = system: foxtail, giant (giant foxtail, Setaria faberii); experiment: Test A postemergence, foxtail, giant; format: in vivo; conditions: Setaria faberi, post-emergence, 240 h, 0 to 100 scale (0 no effect, 100 complete control), read-out: Plant response rating, Foxtail, Giant; for pest or weed control at 31 g/ha: 31 g ai/ha; for pest or weed control at 125 g/ha: 125 g ai/ha
From the text: (§1) Seeds of plant species selected from barnyardgrass (Echinochloa crus-galli), kochia (Kochia scoparia), ragweed (common ragweed, Ambrosia elatior), ryegrass, Italian (Italian ryegrass, Lolium multiflorum), foxtail, giant (giant foxtail, Setaria faberii), foxtail, green (green foxtail, Setaria viridis) and pigweed (Amaranthus retroflexus) were planted into a blend of loam soil and sand and treated preemergence with a directed soil spray using test chemicals formulated in a non-phytotoxic solvent mixture which included a surfactant.
(§2) At the same time, plants selected from these weed species and also wheat (Triticum aestivum), corn (Zea mays), blackgrass (Alopecurus myosuroides), and galium (catchweed bedstraw, Galium aparine) were planted in pots containing the same blend of loam soil and sand and treated with postemergence applications of test chemicals formulated in the same manner. Plants ranged in height from 2 to 10 cm and were in the one- to two-leaf stage for the postemergence treatment. Treated plants and untreated controls were maintained in a greenhouse for approximately 10 days, after which time all treated plants were compared to untreated controls and visually evaluated for injury. […] A dash (-) response means no test result.

[2] = system: foxtail, green (green foxtail, Setaria viridis); experiment: Test A preemergence, foxtail, green; format: in vivo; conditions: Setaria, pre-emergence, 240 h, 0 to 100 scale (0 no effect, 100 complete control), read-out: Plant response rating, Foxtail, Green
From the text: as §1, §2

[3] = system: foxtail, green (green foxtail, Setaria viridis); experiment: Test A postemergence, foxtail, green; format: in vivo; conditions: Setaria, post-emergence, 240 h, 0 to 100 scale (0 no effect, 100 complete control), read-out: Plant response rating, Foxtail, Green
From the text: as §1, §2

Row | Compound | pest or weed control at 31 g/ha [1] [%] | pest or weed control at 125 g/ha [1] [%] | melting point [°C] | pest or weed control at 31 g/ha ([2]; 31 g ai/ha) [%] | pest or weed control at 125 g/ha ([2]; 125 g ai/ha) [%] | pest or weed control at 31 g/ha ([3]; 31 g ai/ha) [%] | pest or weed control at 125 g/ha ([3]; 125 g ai/ha) [%]
1 | O=C1Cc2cccc(Oc3ncc(Cl)cn3)c2C(CCCC(F)(F)F)O1 (centres unmarked) [Compound 17, 8-[(5-Chloro-2-pyrimidinyl)oxy]-1,4-dihydro-1-(4,4,4-trifluorobutyl)-3H-2-benzopyran-3-one] | 20 | 40 | 125 to 129 | – | – | – | –
2 | O=C1O[C@@H](CCC(F)(F)F)c2c(Oc3ncc(Cl)cn3)cccc21 [Compound 18, (3S)-4-[(5-Chloro-2-pyrimidinyl)oxy]-3-(3,3,3-trifluoropropyl)-1(3H)-isobenzofuranone] | 0 | 0 | 99 to 101 | – | – | – | –
3 | O=C1O[C@H](CCC(F)(F)F)c2c(Oc3ncc(Cl)cn3)cccc21 [Compound 19, (3R)-4-[(5-Chloro-2-pyrimidinyl)oxy]-3-(3,3,3-trifluoropropyl)-1(3H)-isobenzofuranone] | 60 | 90 | 94 to 99 | – | – | – | –
4 | O=C1OC(CCC(F)(F)F)Cc2c(Oc3ncc(Cl)cn3)cccc21 (centres unmarked) [Compound 23, 5-[(5-Chloro-2-pyrimidinyl)oxy]-3,4-dihydro-3-(3,3,3-trifluoropropyl)-1H-2-benzopyran-1-one] | 0 | 10 | 117 to 121 | – | – | – | –
5 | O=C1Cc2cccc(Oc3ncc(Cl)cn3)c2C(CCC(F)(F)F)O1 (centres unmarked) [Compound 28, 8-[(5-Chloro-2-pyrimidinyl)oxy]-1,4-dihydro-1-(3,3,3-trifluoropropyl)-3H-2-benzopyran-3-one] | 10 | 20 | 122 to 126 | – | – | – | –
6 | O=C1OC(CCCCC(F)(F)F)Cc2c(Oc3ncc(Cl)cn3)cccc21 (centres unmarked) [Compound 31, 5-[(5-Chloro-2-pyrimidinyl)oxy]-3,4-dihydro-3-(5,5,5-trifluoropentyl)-1H-2-benzopyran-1-one] | 0 | 0 | 93 to 97 | – | – | – | –
7 | CCCC1OC(=O)Cc2cccc(Oc3ncc(Cl)cn3)c21 (centres unmarked) [Compound 35, 8-[(5-Chloro-2-pyrimidinyl)oxy]-1,4-dihydro-1-propyl-3H-2-benzopyran-3-one] | – | – | 136 to 140 | 0 | 10 | 10 | 10
